Data from patent publication US8586719B2, “Triterpenes for modulating gene expression and cell membrane, and as antiprotozoal agents” (Pacific Arrow Limited, priority 2005, dated 2013).
Converted amounts (≈) assume the structure as drawn.

Experiments:
angiopoietin 2 = experiment: Microarray gene expression in ES2 cells: angiopoietin 2; format: cell-based, human; conditions: micro array
Text: (§1) The composition comprises bioactive compounds from natural plants or synthesis. The majority of the plants are from the Sapindaceae family, which has 140-150 genera with 1400-2000 species. The program is based on our purification methods and biological assays including the MTT assay See International Application No. PCT/US05/31900, filed Sep. 7, 2005, U.S. Ser. No. 11/289,142, filed Nov. 28, 2005, and U.S. Ser. No. 11/131,551, filed May 17, 2005, and PCT/US2008/002086, 1188-ALA-PCT, filed Feb. 15, 2008, the contents of which are incorporated herein by reference. The details of Analysis of gene expression of ES2 cells after Y-treatment by Microarray, Data Analysis Methods and Western blot in PCT/US2008/002086, 1188-ALA-PCT, filed Feb. 15, 2008, the contents of which are incorporated herein by reference
(§2) Angiogenesis is a process involving the growth of new blood vessels. It is a normal process in growth and development. However, this is also a fundamental step in the transition of tumors from a dormant state to a malignant state. The angiopoietins are protein growth factors that modulate angiogenesis. […]

(bladder) TB9 cells = experiment: Anti-cancer activity (MTT assay), bladder TB9 cells; format: cell-based; conditions: Homo sapiens
Text: (Our purification methods and biological assays including the MTT assay in International Application No. PCT/US05/31900, filed Sep. 7, 2005, U.S. Ser. No. 11/289,142, filed Nov. 28, 2005, and U.S. Ser. No. 11/131,551, filed May 17, 2005, and PCT/US2008/002086, 1188-ALA-PCT, filed Feb. 15, 2008, the contents of which are incorporated herein by reference)
Experiment details of herb extraction, analysis of extract components by HPLC, determination of the cell-growth activity effected by Xanifolia Y with cells derived from different human organs using MTT Assay, purification of the bioactive components from plant extract, fractionation of plant extracts with FPLC, isolation of component Ys with preparative HPLC, determination of the chemical structure, cell experiments and animal studying are disclosed in PCT/US05/31900, U.S. Ser. No. 11/289,142, U.S. Serial 10/906,303, U.S. Ser. No. 11/131,551 and U.S. Ser. Nos. 11/683,198, filed on Mar. 7, 2007, PCT/US2007/077273, filed Aug. 30, 2007, U.S. Ser. No. 60/890,380, filed on Feb. 16, 2007, U.S. Nos. 60/947,705, filed on Jul. 3, 2007, PCT/US2008/002086, 1188-ALA-PCT, filed Feb. 15, 2008, the contents of which are incorporated herein by reference. Experiments 1-23 of PCT/US2008/002086, 1188-ALA-PCT, filed Feb. 15, 2008 are incorporated herein by reference.

[1] = system: DDIT3 (DNA-damage-inducible transcript 3); experiment: Gene expression by Real-time PCR: DDIT3; format: cell-based; conditions: DMSO control = 100
Text: (§3) Determination of gene expression by Real-time PCR method (Brilliant QPCR, Agilent Technologies): The real-time polymerase chain reactions further confirm the results obtained from micro array analysis. The Real-time PCR results (shown below) confirmed that Compound Y3 and YM increase the expression of the genes: ANGPT2, DDIT3, LIF and NFKB1Z

angiopoietin 1 = experiment: Microarray gene expression in ES2 cells: angiopoietin 1; format: cell-based, human; conditions: micro array
Text: as §1, §2

Fibronectin = Fibronectin secretion, lung carcinoma cells (H460); format: cell-based, human; conditions: Homo sapiens, NCI-H460; H460 cells; 20 ug/ml
Method: Reduction of Fibronectin secretion from ES2 cells after xanifolia-Y treatment. • (Results of F1, F3, F4, F5, F7, F8, F11, F12A, F15, F16, F17) Data in PCT/US2008/002086, 1188-ALA-PCT, filed Feb. 15, 2008 are incorporated herein by reference • (F11) For lung carcinoma cells (H460), at concentration of 20 ug/ml, there are inhibitions of Fibronectin secretion ranged from 20-60%. • (F12A) For bladder carcinoma cells (HTB-9), Xanifolia-Y (10 ug/ml) inhibits 50% of Fibronectin secretion. • (F15) In liver HepG2 cells. 10 ug/ml of xanifolia-Y inhibits 42% secretion of Fibronectin. • (F16) Incubation of brain glioblastoma T98G cells with 10 ug/ml of xanifolia-Y inhibits 27% Fibronectin secretion and with 20 ug/ml Y inhibits 74% Fibronectin secretion. • (F17) For skin SK-MeI-5 cells, the inhibition is 40-57% with 20 ug/ml of Xanifolia-Y.

FN1 (fibronectin 1) = experiment: Gene expression by Real-time PCR: FN1; format: cell-based; conditions: control = 100
Text: as §3

Angiopoietin 2 (Ang2) = experiment: Up regulation of Angiopoietin 2 (Ang2) in ES2 cells; format: cell-based, human; conditions: study in PCT/US2008/002086
Text: The results of study in PCT/US2008/002086, 1188-ALA-PCT, filed Feb. 15, 2008 are incorporated herein by reference.

ITGAV (integrin alpha V) = experiment: Gene expression by Real-time PCR: ITGAV; format: cell-based; conditions: control = 100
Text: as §3

thrombospondin 1 (THBS1) = experiment: Microarray gene expression in ES2 cells: thrombospondin; format: cell-based, human
Text: as §1

C/C=C(/C)C(=O)O[C@H]1[C@H](OC(=O)/C(C)=C\C)[C@@]2(CO)C(CC1(C)C)C1=CCC3[C@@]4(C)CC[C@H](O[C@@H]5OC(C(=O)O)[C@@H](O)[C@@H](O[C@@H]6O[C@@H](CO)[C@@H](O)C6O)C5O[C@@H]5OC(CO)[C@H](O)[C@@H](O)C5O)C(C)(C)C4CC[C@@]3(C)[C@]1(C)[C@@H](O)[C@H]2O (stereo partly drawn) [Y, 3-O-[β-D-galactopyranosyl(1→2)]-α-L-arabinofuranosy (1→3)-β-D-glucuronopyranosyl-21,22-O-diangeloyl-3β, 15α, 16α, 21β, 22α, 28-hexahydroxyolean-12-ene]
gene expression of angiopoietin 2 (angiopoietin 2): promote | IC50 ((bladder) TB9 cells): 5 µg/mL (≈ 4.38 µM) | DDIT3 expression, % of control [1]: 213 % of control | gene expression of angiopoietin 1 (angiopoietin 1): inhibit | inhibition at 20 µg/mL (Fibronectin): 20 to 60% | FN1 expression, % of control (FN1 (fibronectin 1)): 44.1 % of control | Angiopoietin 2 (Ang2) in ES2 cells (Angiopoietin 2 (Ang2)): Up regulation | ITGAV expression, % of control (ITGAV (integrin alpha V)): 63.8 % of control | THBS1 expression, treated/D (DMSO control) (thrombospondin 1 (THBS1); probe set 201108_s_at): −1.7 | THBS1 expression, treated/D (DMSO control) (thrombospondin 1 (THBS1); probe set 201109_s_at): −2.0 | THBS1 expression, treated/D (DMSO control) (thrombospondin 1 (THBS1); probe set 201110_s_at): −1.8
